Measurements taken from patent USRE48253E1, “Methotrexate adjuvants to reduce toxicity and methods for using the same” (Tosk, Inc., priority 2008, dated 2020).

What was measured:
C57BL/6 mice = assay: Mouse Study III: MTX-induced infection measured as WBC counts; assay type: in vivo; details: Day 11
Description: C57BL/6 mice (n=10/dose group), treated i.p. 50 mg/kg MTX on Day 1, 2, 3, 4, 6 and 8 along with 60 mg/kg TK-1126901.p. 3 hr±MTX followed by single daily doses TK-112690 on days not treated with MTX. On Day 11, the animals were sacrificed and hematology performed on the resulting blood. Group 1=saline control, Group 2=MTX control and Group 3=MTX+TK-112690.
Several parameters have been examined in an effort to develop a model to confirm the protection from mucositis observed in the LPS/MTX assay. On examination of complete blood counts (CBCs), consistently elevated levels of white blood cell counts (WBCs) are observed when mice are treated with MTX (FIG. 4). This increase is not observed in animals that are also treated with TK-112690 (FIG. 4). […] LPS is a large molecule on the outer membrane of Gram negative bacteria. Tissues exposed to LPS express pro-inflammatory cytokines such as TNF-α and […]. Increases in these cytokines due to exposure of tissues to LPS generate an immune response which, in turn, increases WBCs.
For the study whose data are presented in FIG. 4, C57BL/6 mice (n=10/dose group) were treated i.p. with 50 mg/kg MTX on Day 1, 2, 3, 4, 6 and 8 along with 60 mg/kg TK-1126901.p. 3 hr±MTX followed by single daily doses TK-112690 on days not treated with MTX. On Day 11, the animals were bled and hematology performed on the resulting blood samples. […]

[1] = test system: UPase knockout (19519) Drosophila melanogaster; assay: Fly Study II: MTX lethality in UPase knockout flies; assay type: in vivo
Description: Embryos of UPase knockout (19519) Drosophila melanogaster were orally exposed to a dose range of MTX doses in food admix. Embryos of Wild-type (Oregon-R) were orally exposed to the same dose range of MTX in presence and absence of 0.04 mg TK-112690. Scoring was based on life or death 15 days after initiation of MTX exposure. […] Wild-type D. melanogaster are sensitive to lethal effects of ≥0.1 mg MTX.
The aim of this study was to evaluate the lethal effects of a range (0.001, 0.01, 0.05, 0.1, 0.2, 0.4 mg) of doses of orally fed MTX in wild-type (Ore-R) and UPase mutant Drosophila melanogaster. Embryos of UPase knockout (19519) Drosophila melanogaster were orally exposed to a dose range of MTX (0.001, 0.01, 0.05, 0.1, 0.2, 0.4 mg) in food admix. Embryos of Wild-type (Oregon-R) were orally exposed to the same dose range of MTX in presence and absence of 0.04 mg TK-112690. Scoring was based on life or death 15 days after initiation of MTX exposure.

CCRF-CEM cells = assay: Cell Culture Study I: MTX cytotoxicity, alamarBlue; assay type: cell-based, human; details: 72 hours
Description: In this study, CCRF-CEM cells purchased from ATCC were cultured and then 12 tubes containing approximately 10^6 cells each treated for 72 hours with media (Group1), MTX 0.03 μM (Group2), MTX+Leucovorin 1 μM (Group3), MTX+Leucovorin 10 μM (Group4), MTX+Leucovorin 100 μM (Group5), MTX+TK-112690 1 μM (Group6), MTX+TK-112690 10 μM (Group7) and MTX+TK-112690 100 μM (Group8). […] Viability was measured as percent reduction of alamarBlue absorbance.
The tumor cell line CCR-CEM (human T-cell acute lymphoblastic leukemia) is obtained from American Type Culture Collection (CRL-1593.2) and cultured in accordance with the product information sheet with the following exceptions: 55.3 cm^2 Petri dishes are used instead of 75 cm^2 culture flasks, and 1% penicillin-streptomycin solution (HyClone SV30010) and 1% GlutaMAX™ (Gibco 35050) are added to the culture medium.
TK-112690, the representative 2,2′-anhydropyrimidine test article, is dissolved in 40% DMSO, sterile filtered then diluted with sterile distilled water to obtain initial working solutions of 10, 100 and 1000 μM. In testing, a 100 fold dilution is made in culture media to give final assay concentrations of 0.1, 1.0 and 10.0 μM. MTX (SAFC Biosciences M8407) is dissolved in sterile distilled water and 5 N NaOH then sterile filtered. The final pH of the stock solution is 7.8 and working solutions are made with sterile distilled water for final assay concentrations of 30, 3.0, 0.3, 0.03 and 0.003 μM. Leucovorin (Sigma F-7878) is dissolved in sterile distilled water, sterile filtered and diluted with sterile distilled water for final assay concentrations of 0.1, 1.0 and 10.0 μM.
Aliquots of 100 μL of cell suspension are plated in 96 well microtiter plates (Corning costar 3595) and placed in an atmosphere of 5% CO2 at 37° C. (Fisher Scientific Isotemp 3500 CO2 Incubator). After 24 hours, 100 μL of growth medium [RPMI-1640 w/L-glutamine (Cambrex 12-702Q) fortified with sodium pyruvate (HyClone SH30239.01), fetal bovine serum (SAFC Biosciences 12107C) and HEPES buffer (Gibco 15630)] and 2 μL of test solution or vehicle are added respectively per well and the plates incubated for an additional 72 hour incubation. MTX is evaluated at concentrations of 0.003, 0.03, 0.30 and 3.0 μM alone or in combination with either a 2,2′-anhydropyrimidine test article or Leucovorin at concentrations of 0.1, 1.0, 10.0 μM. At the end of incubation, the efficacy of anti-cell proliferation is determined by optical absorbance at λ=570 and 600 nm [Spectramax 250 (Molecular Devices)] in accordance with the standard alamarBlue™ (Biosource) protocol.
Group 1 is the cell control (media treated). Group 2 corresponds to cells treated with 0.03 μM MTX. Group 3 are cells treated with 1.0 μM Leucovorin. Group 4 are cells treated with 0.1 μM Leucovorin. Group 5 are cells treated with 10 μM TK-112690. Group 6 are cells treated with MTX+10 μM TK-112690. Group 7 are cells treated with MTX+1.0 μM TK-112690. Group 8 MTX+0.1 μM TK-112690.

| Structure (SMILES) | protection from MTX-induced mucositis measured as WBC counts (C57BL/6 mice; 60 mg/kg ip with MTX 50 mg/kg) | added protection from methotrexate toxicities in UPase mutant flies ([1]; TK-112690 added to dose range of methotrexate) | effect on MTX cytotoxicity (viability, alamarBlue) (CCRF-CEM cells; combined with MTX 0.03 μM) | viability, agent alone vs control (CCRF-CEM cells; without MTX) | systemic WBC (C57BL/6 mice; 50 mg/kg MTX ip Day 1, 2, 3, 4, 6 and 8) | lethal effects of MTX in UPase knockout flies ([1]; MTX 0.001-0.4 mg orally) | viability, MTX alone vs cell control (CCRF-CEM cells; MTX 0.03 μM) |
| --- | --- | --- | --- | --- | --- | --- | --- |
| Cc1cn2c(nc1=O)O[C@H]1[C@H](O)[C@@H](CO)O[C@H]12 [TK-112690, 2,2′-anhydro-5-methyluridine] | protects from MTX-induced mucositis | does not provide added protection | do not interfere with methotrexate cytotoxicity | not statistically different than control |  |  |  |
| CN(Cc1cnc2nc(N)nc(N)c2n1)c1ccc(C(=O)N[C@@H](CCC(=O)O)C(=O)O)cc1 [MTX, N-[4-[[(2,4-diamino-6-pteridinyl)methyl]methylamino]benzoyl]-L-glutamic acid, reference compound] |  |  |  |  | increases systemic WBC | resistant to lethal effects | statistically significantly different from Group1 |
